Positions of bridges follow the written chain, without caps; N, C: chain ends. Residues, ends and D or L forms follow the SMILES beside them.
How the values were obtained:
Assay in all cases: cell-based
hNav1.3 = hNav1.3 (Homo sapiens, UniProt Q9NY46); details: IonWorks Quattro, use-dependent block, hNav1.3; read-out: IWQ Use Nav1.3
hNav1.5 = hNav1.5 (Homo sapiens, UniProt Q14524); details: IonWorks Quattro, use-dependent block, hNav1.5; read-out: IWQ Use Nav1.5
hNav1.7 = hNav1.7 (Homo sapiens, UniProt Q15858); assay type: cell-based; details: IonWorks Quattro, use-dependent block, hNav1.7; read-out: IWQ Use Nav1.7

Sequence of hNav1.5 (Q14524 whole entry, looked up): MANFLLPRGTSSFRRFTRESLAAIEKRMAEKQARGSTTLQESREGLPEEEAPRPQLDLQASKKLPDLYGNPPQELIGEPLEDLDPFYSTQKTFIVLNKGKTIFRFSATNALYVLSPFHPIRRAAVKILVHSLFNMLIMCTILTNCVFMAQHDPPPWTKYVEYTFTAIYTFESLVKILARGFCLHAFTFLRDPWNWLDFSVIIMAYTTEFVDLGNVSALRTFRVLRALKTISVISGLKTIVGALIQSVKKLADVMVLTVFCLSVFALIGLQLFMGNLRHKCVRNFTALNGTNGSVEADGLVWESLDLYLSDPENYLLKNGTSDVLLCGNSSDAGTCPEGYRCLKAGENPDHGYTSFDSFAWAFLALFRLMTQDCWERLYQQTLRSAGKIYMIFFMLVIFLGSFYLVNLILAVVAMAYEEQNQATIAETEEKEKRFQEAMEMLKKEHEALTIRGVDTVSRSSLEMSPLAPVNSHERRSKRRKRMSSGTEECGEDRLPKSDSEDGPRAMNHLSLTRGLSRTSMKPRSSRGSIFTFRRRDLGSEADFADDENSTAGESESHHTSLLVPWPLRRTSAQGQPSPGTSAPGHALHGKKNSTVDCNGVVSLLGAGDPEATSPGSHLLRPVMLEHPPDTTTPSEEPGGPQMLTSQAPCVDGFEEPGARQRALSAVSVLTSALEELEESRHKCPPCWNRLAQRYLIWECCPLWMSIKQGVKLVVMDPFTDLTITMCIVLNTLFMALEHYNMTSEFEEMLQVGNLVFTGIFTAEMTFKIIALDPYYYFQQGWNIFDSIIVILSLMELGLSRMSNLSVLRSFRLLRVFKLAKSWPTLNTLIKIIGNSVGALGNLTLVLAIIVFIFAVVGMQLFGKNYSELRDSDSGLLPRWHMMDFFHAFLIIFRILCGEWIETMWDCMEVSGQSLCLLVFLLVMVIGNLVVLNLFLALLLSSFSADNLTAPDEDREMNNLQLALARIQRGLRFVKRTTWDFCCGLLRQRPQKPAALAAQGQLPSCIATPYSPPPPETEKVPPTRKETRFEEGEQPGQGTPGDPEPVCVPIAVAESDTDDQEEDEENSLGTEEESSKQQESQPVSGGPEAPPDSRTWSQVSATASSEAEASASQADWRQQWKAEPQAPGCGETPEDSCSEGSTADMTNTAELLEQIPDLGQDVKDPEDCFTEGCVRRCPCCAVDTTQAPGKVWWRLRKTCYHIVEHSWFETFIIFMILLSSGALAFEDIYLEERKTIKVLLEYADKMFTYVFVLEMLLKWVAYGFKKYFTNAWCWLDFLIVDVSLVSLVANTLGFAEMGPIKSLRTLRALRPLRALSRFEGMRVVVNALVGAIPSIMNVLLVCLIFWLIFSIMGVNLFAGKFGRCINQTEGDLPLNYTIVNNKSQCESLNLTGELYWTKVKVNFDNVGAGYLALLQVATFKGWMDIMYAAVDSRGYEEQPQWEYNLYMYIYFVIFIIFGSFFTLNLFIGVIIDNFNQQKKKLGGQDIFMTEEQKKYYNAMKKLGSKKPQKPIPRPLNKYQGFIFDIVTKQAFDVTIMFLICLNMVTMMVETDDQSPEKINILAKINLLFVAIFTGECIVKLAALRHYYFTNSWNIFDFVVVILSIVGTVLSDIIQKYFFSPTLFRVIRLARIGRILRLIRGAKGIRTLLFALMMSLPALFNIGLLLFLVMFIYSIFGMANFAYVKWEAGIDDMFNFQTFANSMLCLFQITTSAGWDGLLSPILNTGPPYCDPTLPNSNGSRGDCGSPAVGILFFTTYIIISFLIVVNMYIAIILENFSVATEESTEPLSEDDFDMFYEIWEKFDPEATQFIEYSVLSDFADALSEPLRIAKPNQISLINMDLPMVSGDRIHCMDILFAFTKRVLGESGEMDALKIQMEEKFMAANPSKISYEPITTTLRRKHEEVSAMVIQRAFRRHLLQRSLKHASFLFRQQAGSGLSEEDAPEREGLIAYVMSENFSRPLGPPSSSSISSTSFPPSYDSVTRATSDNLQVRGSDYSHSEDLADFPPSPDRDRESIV
Sequence of hNav1.3 (Q9NY46 whole entry, looked up): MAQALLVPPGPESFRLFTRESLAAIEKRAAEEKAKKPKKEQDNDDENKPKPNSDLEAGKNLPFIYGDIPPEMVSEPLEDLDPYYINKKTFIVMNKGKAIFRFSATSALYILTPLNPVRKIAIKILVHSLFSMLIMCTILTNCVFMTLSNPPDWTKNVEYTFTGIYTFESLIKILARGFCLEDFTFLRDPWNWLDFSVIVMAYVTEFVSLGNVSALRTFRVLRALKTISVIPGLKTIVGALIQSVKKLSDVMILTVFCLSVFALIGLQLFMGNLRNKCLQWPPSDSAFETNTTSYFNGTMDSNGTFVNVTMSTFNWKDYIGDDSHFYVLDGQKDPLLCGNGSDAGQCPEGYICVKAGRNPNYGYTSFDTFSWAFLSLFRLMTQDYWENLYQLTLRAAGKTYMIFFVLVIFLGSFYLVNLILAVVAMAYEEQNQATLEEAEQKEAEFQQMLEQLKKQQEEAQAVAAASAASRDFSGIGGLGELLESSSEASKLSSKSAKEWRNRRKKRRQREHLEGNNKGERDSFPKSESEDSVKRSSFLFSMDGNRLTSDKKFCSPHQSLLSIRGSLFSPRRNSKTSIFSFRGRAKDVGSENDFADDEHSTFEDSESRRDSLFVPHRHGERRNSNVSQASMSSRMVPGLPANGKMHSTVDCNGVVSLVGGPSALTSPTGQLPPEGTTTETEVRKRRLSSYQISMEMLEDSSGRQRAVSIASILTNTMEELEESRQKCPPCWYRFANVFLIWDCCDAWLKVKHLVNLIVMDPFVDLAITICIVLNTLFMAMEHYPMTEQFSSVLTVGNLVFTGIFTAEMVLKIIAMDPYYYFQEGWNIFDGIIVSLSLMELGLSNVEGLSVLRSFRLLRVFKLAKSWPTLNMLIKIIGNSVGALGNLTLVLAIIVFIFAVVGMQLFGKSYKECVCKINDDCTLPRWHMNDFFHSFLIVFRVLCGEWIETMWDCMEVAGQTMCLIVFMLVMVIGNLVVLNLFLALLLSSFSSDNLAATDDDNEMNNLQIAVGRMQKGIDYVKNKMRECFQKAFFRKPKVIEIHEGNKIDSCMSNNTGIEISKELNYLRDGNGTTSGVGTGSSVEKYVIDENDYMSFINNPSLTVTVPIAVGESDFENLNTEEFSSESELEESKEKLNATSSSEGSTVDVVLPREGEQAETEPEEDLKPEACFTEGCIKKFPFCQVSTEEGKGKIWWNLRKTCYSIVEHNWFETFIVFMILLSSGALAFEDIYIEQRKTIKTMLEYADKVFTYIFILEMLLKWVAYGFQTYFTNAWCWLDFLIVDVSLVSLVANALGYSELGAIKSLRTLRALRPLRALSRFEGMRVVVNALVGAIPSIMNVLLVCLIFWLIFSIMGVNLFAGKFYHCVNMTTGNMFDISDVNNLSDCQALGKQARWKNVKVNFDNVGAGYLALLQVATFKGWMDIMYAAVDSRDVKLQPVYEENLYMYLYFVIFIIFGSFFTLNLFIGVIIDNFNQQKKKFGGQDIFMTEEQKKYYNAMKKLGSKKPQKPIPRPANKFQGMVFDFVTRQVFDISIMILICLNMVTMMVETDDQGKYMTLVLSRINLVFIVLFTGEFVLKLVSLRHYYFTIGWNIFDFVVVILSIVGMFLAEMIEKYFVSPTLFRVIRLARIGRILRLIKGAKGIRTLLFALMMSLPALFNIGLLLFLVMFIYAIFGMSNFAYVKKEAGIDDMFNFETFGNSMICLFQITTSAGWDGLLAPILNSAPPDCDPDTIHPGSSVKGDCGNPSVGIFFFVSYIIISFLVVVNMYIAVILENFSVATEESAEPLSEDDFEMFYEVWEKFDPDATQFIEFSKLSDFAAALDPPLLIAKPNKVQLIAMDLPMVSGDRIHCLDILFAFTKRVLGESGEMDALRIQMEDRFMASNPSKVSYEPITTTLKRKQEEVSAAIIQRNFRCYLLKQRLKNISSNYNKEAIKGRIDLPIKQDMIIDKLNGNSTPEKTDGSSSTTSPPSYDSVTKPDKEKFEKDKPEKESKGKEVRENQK

Compound: CC[C@H](C)[C@@H]1NC(=O)[C@@H]2CSSC[C@@H]3NC(=O)[C@H](C(C)C)NC(=O)[C@H](CC(C)C)NC(=O)[C@H](CC(N)=O)NC(=O)[C@@H]4CCCN4C(=O)[C@H](CCCNC(=N)N)NC(=O)[C@H](CSSC[C@H](NC(=O)[C@@H](N)CC(=O)O)C(=O)N[C@@H](CC(C)C)C(=O)NCC(=O)N[C@@H](C)C(=O)N[C@@H](Cc4ccccc4)C(=O)N[C@@H](CCCNC(=N)N)C(=O)N[C@@H](CCCCN)C(=O)N2)NC(=O)[C@H](CSSC[C@@H](C(=O)N[C@@H](CCCCN)C(=O)N[C@@H](Cc2ccc(O)cc2)C(=O)N[C@H](C(=O)N[C@@H](Cc2ccccc2)C(=O)N[C@@H](Cc2ccccc2)C(=O)O)C(C)C)NC(=O)[C@H](Cc2c[nH]c4ccccc24)NC(=O)[C@H](CCCNC(=N)N)NC(=O)[C@H](Cc2c[nH]cn2)NC(=O)[C@H]([C@@H](C)O)NC(=O)[C@H](CCCNC(=N)N)NC(=O)[C@H](CO)NC3=O)NC(=O)[C@H](CCCCN)NC(=O)[C@H](CC(=O)O)NC(=O)[C@H](CC(N)=O)NC(=O)[C@H](CC(=O)O)NC(=O)[C@@H]2CCCN2C1=O [compound 817] (H-DCLGAFRKCIPDNDKCCRPNLVCSRTHRWCKYVFF-OH; disulfide 2-17, 9-23, 16-30)
- IC50 (hNav1.3): 0.5 µM
- IC50 (hNav1.5): > 5 µM
- IC50 (hNav1.7): 1.5 µM

Compound: CC[C@H](C)[C@@H]1NC(=O)[C@@H]2CSSC[C@@H]3NC(=O)[C@H](C(C)C)NC(=O)[C@H](CC(C)C)NC(=O)[C@H](CC(N)=O)NC(=O)[C@@H]4CCCN4C(=O)[C@H](CCCNC(=N)N)NC(=O)[C@H](CSSC[C@H](NC(=O)[C@@H](N)CC(=O)O)C(=O)N[C@@H](CC(C)C)C(=O)NCC(=O)N[C@@H](C)C(=O)N[C@@H](CC(C)C)C(=O)N[C@@H](CCCNC(=N)N)C(=O)N[C@@H](CCCCN)C(=O)N2)NC(=O)[C@H](CSSC[C@@H](C(=O)N[C@@H](CCCCN)C(=O)N[C@@H](Cc2ccc(O)cc2)C(=O)N[C@H](C(=O)N[C@@H](Cc2ccccc2)C(=O)N[C@@H](Cc2ccccc2)C(=O)O)C(C)C)NC(=O)[C@H](Cc2c[nH]c4ccccc24)NC(=O)[C@H](CCCNC(=N)N)NC(=O)[C@H](Cc2c[nH]cn2)NC(=O)[C@H]([C@@H](C)O)NC(=O)[C@H](CCCNC(=N)N)NC(=O)[C@H](CO)NC3=O)NC(=O)[C@H](CCCCN)NC(=O)[C@H](CC(=O)O)NC(=O)[C@H](CC(N)=O)NC(=O)[C@H](CC(=O)O)NC(=O)[C@@H]2CCCN2C1=O [compound 818] (H-DCLGALRKCIPDNDKCCRPNLVCSRTHRWCKYVFF-OH; disulfide 2-17, 9-23, 16-30)
- IC50 (hNav1.3): 0.8 µM
- IC50 (hNav1.5): > 5 µM
- IC50 (hNav1.7): 2.3 µM

Compound: CC[C@H](C)[C@@H]1NC(=O)[C@@H]2CSSC[C@@H]3NC(=O)[C@H](C(C)C)NC(=O)[C@H](CC(C)C)NC(=O)[C@H](CC(N)=O)NC(=O)[C@@H]4CCCN4C(=O)[C@H](CCCNC(=N)N)NC(=O)[C@H](CSSC[C@H](NC(=O)[C@H](CC(=O)O)NC(=O)[C@H](CO)NC(=O)CN)C(=O)N[C@@H](CC(C)C)C(=O)NCC(=O)N[C@@H](C)C(=O)N[C@@H](Cc4ccccc4)C(=O)N[C@@H](CCCNC(=N)N)C(=O)N[C@@H](CCCCN)C(=O)N2)NC(=O)[C@H](CSSC[C@@H](C(=O)N[C@@H](CCCCN)C(=O)N[C@@H](Cc2ccc(O)cc2)C(=O)N[C@H](C(=O)N[C@@H](Cc2ccccc2)C(=O)N[C@@H](Cc2ccccc2)C(=O)O)C(C)C)NC(=O)[C@H](Cc2c[nH]c4ccccc24)NC(=O)[C@H](CCCNC(=N)N)NC(=O)[C@H](Cc2c[nH]cn2)NC(=O)[C@H]([C@@H](C)O)NC(=O)[C@H](CCCNC(=N)N)NC(=O)[C@H](CO)NC3=O)NC(=O)[C@H](CCCCN)NC(=O)[C@H](CC(=O)O)NC(=O)[C@H](CC(N)=O)NC(=O)[C@H](CC(=O)O)NC(=O)[C@@H]2CCCN2C1=O [compound 819] (H-GSDCLGAFRKCIPDNDKCCRPNLVCSRTHRWCKYVFF-OH; disulfide 4-19, 11-25, 18-32)
- IC50 (hNav1.3): 0.5 µM
- IC50 (hNav1.5): > 5 µM
- IC50 (hNav1.7): 1.5 µM

Compound: CC[C@H](C)[C@@H]1NC(=O)[C@@H]2CSSC[C@@H]3NC(=O)[C@H](C(C)C)NC(=O)[C@H](CC(C)C)NC(=O)[C@H](CC(N)=O)NC(=O)[C@@H]4CCCN4C(=O)[C@H](CCCNC(=N)N)NC(=O)[C@H](CSSC[C@H](NC(=O)[C@H](CC(=O)O)NC(=O)[C@H](CO)NC(=O)CN)C(=O)N[C@@H](CC(C)C)C(=O)NCC(=O)N[C@@H](C)C(=O)N[C@@H](Cc4ccccc4)C(=O)N[C@@H](CCCNC(=N)N)C(=O)N[C@@H](CCCCN)C(=O)N2)NC(=O)[C@H](CSSC[C@@H](C(=O)N[C@@H](CCCCN)C(=O)N[C@@H](Cc2ccc(O)cc2)C(=O)N[C@H](C(=O)N[C@@H](Cc2ccccc2)C(=O)O)C(C)C)NC(=O)[C@H](Cc2c[nH]c4ccccc24)NC(=O)[C@H](CCCNC(=N)N)NC(=O)[C@H](Cc2c[nH]cn2)NC(=O)[C@H]([C@@H](C)O)NC(=O)[C@H](CCCNC(=N)N)NC(=O)[C@H](CO)NC3=O)NC(=O)[C@H](CCCCN)NC(=O)[C@H](CC(=O)O)NC(=O)[C@H](CC(N)=O)NC(=O)[C@H](CC(=O)O)NC(=O)[C@@H]2CCCN2C1=O [compound 821] (H-GSDCLGAFRKCIPDNDKCCRPNLVCSRTHRWCKYVF-OH; disulfide 4-19, 11-25, 18-32)
- IC50 (hNav1.3): 3.2 µM
- IC50 (hNav1.5): > 5 µM
- IC50 (hNav1.7): 3.2 µM

Compound: CC[C@H](C)[C@@H]1NC(=O)[C@@H]2CSSC[C@@H]3NC(=O)[C@H](C(C)C)NC(=O)[C@H](CC(C)C)NC(=O)[C@H](CC(N)=O)NC(=O)[C@@H]4CCCN4C(=O)[C@H](CCCNC(=N)N)NC(=O)[C@H](CSSC[C@H](NC(=O)[C@@H](N)CC(=O)O)C(=O)N[C@@H](CC(C)C)C(=O)NCC(=O)N[C@@H](C)C(=O)N[C@@H](Cc4ccccc4)C(=O)N[C@@H](CCCNC(=N)N)C(=O)N[C@@H](CCCCN)C(=O)N2)NC(=O)[C@H](CSSC[C@@H](C(=O)N[C@@H](CCCCN)C(=O)N[C@@H](Cc2ccc(O)cc2)C(=O)N[C@H](C(=O)N[C@@H](Cc2ccccc2)C(=O)O)C(C)C)NC(=O)[C@H](Cc2c[nH]c4ccccc24)NC(=O)[C@H](CCCNC(=N)N)NC(=O)[C@H](Cc2c[nH]cn2)NC(=O)[C@H]([C@@H](C)O)NC(=O)[C@H](CCCNC(=N)N)NC(=O)[C@H](CO)NC3=O)NC(=O)[C@H](CCCCN)NC(=O)[C@H](CC(=O)O)NC(=O)[C@H](CC(N)=O)NC(=O)[C@H](CC(=O)O)NC(=O)[C@@H]2CCCN2C1=O [compound 823] (H-DCLGAFRKCIPDNDKCCRPNLVCSRTHRWCKYVF-OH; disulfide 2-17, 9-23, 16-30)
- IC50 (hNav1.3): 3.4 µM
- IC50 (hNav1.5): > 5 µM
- IC50 (hNav1.7): 3.4 µM

Compound: CC[C@H](C)[C@@H]1NC(=O)[C@@H]2CSSC[C@@H]3NC(=O)[C@H](C(C)C)NC(=O)[C@H](CC(C)C)NC(=O)[C@H](CC(N)=O)NC(=O)[C@@H]4CCCN4C(=O)[C@H](CCCNC(=N)N)NC(=O)[C@H](CSSC[C@H](NC(=O)[C@@H](N)CC(=O)O)C(=O)N[C@@H](CC(C)C)C(=O)NCC(=O)N[C@@H](C)C(=O)N[C@@H](Cc4ccccc4)C(=O)N[C@@H](CCCNC(=N)N)C(=O)N[C@@H](CCCCN)C(=O)N2)NC(=O)[C@H](CSSC[C@@H](C(=O)N[C@@H](CCCCN)C(=O)N[C@@H](Cc2ccc(O)cc2)C(=O)N[C@H](C(=O)N[C@@H](Cc2ccccc2)C(=O)O)C(C)C)NC(=O)[C@H](Cc2c[nH]c4ccccc24)NC(=O)[C@H](C)NC(=O)[C@H](Cc2c[nH]cn2)NC(=O)[C@H]([C@@H](C)O)NC(=O)[C@H](CCCNC(=N)N)NC(=O)[C@H](CO)NC3=O)NC(=O)[C@H](CCCCN)NC(=O)[C@H](CC(=O)O)NC(=O)[C@H](CC(N)=O)NC(=O)[C@H](CC(=O)O)NC(=O)[C@@H]2CCCN2C1=O [compound 824] (H-DCLGAFRKCIPDNDKCCRPNLVCSRTHAWCKYVF-OH; disulfide 2-17, 9-23, 16-30)
- IC50 (hNav1.3): > 5 µM
- IC50 (hNav1.5): > 5 µM
- IC50 (hNav1.7): > 5 µM

Reference: patent US9340590B2 (priority 2011, dated 2016)
